Measured values taken from patent US4271163A, “Novel 3,4-diaza-bicyclo[4.1.0]hept-2-en-5-ones, their preparation, and therapeutic agents containing these compounds” (BASF Aktiengesellschaft, priority 1978, dated 1981).
In brackets after ≈: the same amount, converted by molar mass. Like-named read-outs stand apart in the source and are kept apart here.

Legend:
human thrombocytes = experiment: Inhibition of the collagen-induced aggregation of human thrombocytes in vitro; assay type: cell-based; details: for EC50: 10 min, read-out: Inhibition of collagen-induced thrombocyte aggregation in vitro, EC 50%; for Inhibition of aggregation, R.A. (relative activity): acetylsalicylic acid = 1.00
Protocol: 1. Inhibition of the collagen-induced aggregation of human thrombocytes in vitro.
(§1) Thrombocyte-rich plasma is obtained by centrifuging venous citrate blood (300 g, 10 minutes duration at 4° C.). The photometric measurement of the thrombocyte aggregation is carried out with addition of MgCl2 (final concentration 10 millimoles/l) and of collagen Stago (final concentration 0.02 mg/ml) in a Born Mk 3 aggregometer. The maximum extinction change/sec is used as a measure of the aggregation.
The aggregation-inhibiting activity of the substances is tested after an incubation time of 10 minutes.
The EC 50% is taken to be the concentration causing 50% inhibition of aggregation.
(§2) The effective doses or effective concentrations were calculated from the linear relationships between the logarithm of the dose or concentration and the logarithm of the effect, by means of regression analysis.
(§3) Acetylsalicylic acid was used as the reference substance for the inhibition of thrombocyte aggregation and dihydralazine for the anti-hypertensive effect.

narcotized rats = experiment: Anti-hypertensive effect on narcotized rats; assay type: in vivo, rat (male Sprague-Dawley); details: rats under urethane narcosis, intraperitoneal; for ED (20%): Rattus norvegicus, ip, dose which lowers the blood pressure by 20%, read-out: Reduction in blood pressure, ED 20%; for Reduction in blood pressure, R.A. (relative activity): dihydralazine = 1.00
Protocol: 3. Anti-hypertensive effect on narcotized rats.
To test the anti-hypertensive effect, the substances are administered intraperitoneally to groups of 3-5 male Sprague-Dawley rats weighing 240-280 g, under urethane narcosis ([…] given intraperitoneally).
The measurement of the blood pressure in the carotid artery is carried out by means of Statham transducers. The ED 20% is determined as the dose which lowers the mean carotid blood pressure by 20%.
as §2, §3

rat thrombocytes = experiment: Inhibition of the collagen-induced aggregation of rat thrombocytes ex vivo; assay type: in vivo, rat (male Sprague-Dawley); details: for ED (33%): Rattus norvegicus, read-out: Inhibition of thrombocyte aggregation, ED 33%; for Inhibition of thrombocyte aggregation, R.A. (relative activity): acetylsalicylic acid = 1.00; for Inhibition of thrombocyte aggregation after oral administration in vivo (in words): versus acetylsalicylic acid
Protocol: as §1
2. Inhibition of the collagen-induced aggregation of rat thrombocytes ex vivo.
The substances are administered orally to groups of 10-15 male Sprague-Dawley rat weighing 200-250 g. 1-4 hours after administration, blood is taken under ether narcosis and thrombocyte-rich plasma is obtained by centrifuging. The aggregation after addition of collagen is measured as indicated above. The ED 33% is determined as the dose which inhibits the collagen-induced thrombocyte aggregation by 33%.
as §2, §3

[1] = test system: spontaneously hypertonic rats; experiment: Anti-hypertensive effect on spontaneously hypertonic rats; assay type: in vivo, rat (male spontaneously hypertonic Okamoto); details: for ED (20%): Rattus norvegicus, 2 h, dose which lowers the blood pressure by 20% compared to the control group; for ED (20%) / Anti-hypertensive effect, R.A.: oral administration; for Anti-hypertensive effect, R.A.: dihydralazine = 1.00
Protocol: 4. Anti-hypertensive effect on spontaneously hypertonic rats.
The substances are administered orally to groups of 4-8 male spontaneously hypertonic Okamoto rats weighing 270-340 g. Before, and 2 hours after, the administration, the systolic blood pressure is measured non-surgically by means of piezo-electric crystal sensors.
The ED 20% is determined as the dose which lowers the systolic pressure by 20%, taking into account the values found with untreated control animals.
as §2, §3

[2] = human thrombocytes in vitro, concentration which inhibits the collagen-induced aggregation by 50%, 10 minutes incubation
[3] = rats, oral administration, dose which inhibits the collagen-induced aggregation by 33%

Compound	EC50 (human thrombocytes; [2])	Inhibition of aggregation, R.A. (relative activity) (human thrombocytes; human thrombocytes in vitro)	ED (20%) (narcotized rats)	Reduction in blood pressure, R.A. (relative activity) (narcotized rats)	ED (33%) (rat thrombocytes; [3])	Inhibition of thrombocyte aggregation, R.A. (relative activity) (rat thrombocytes; rats, oral administration)	Inhibition of thrombocyte aggregation after oral administration in vivo (in words) (rat thrombocytes; rats)	ED (20%) [1]	Anti-hypertensive effect in spontaneously hypertonic rats after oral administration (in words) [1]	Anti-hypertensive effect, R.A. [1]	EC50 (human thrombocytes; Homo sapiens)	ED (33%) (rat thrombocytes; po)
CCCC(=O)Nc1ccc(C2=NNC(=O)C3CC23)cc1 (centres unmarked) [Example 15, 2-(p-butyrylaminophenyl)-3,4-diaza-bicyclo[4.1.0]hept-2-en-5-one]	1.87 mg/L (≈ 6.89 µM)	264	1.88 mg/kg	0.18								
CCC(=O)Nc1ccc(C2=NNC(=O)C3CC23)cc1 (centres unmarked) [Example 11, 2-(p-propionylaminophenyl)-3,4-diaza-bicyclo[4.1.0]hept-2-en-5-one]	0.28 mg/L (≈ 1.09 µM)	1760	0.134 mg/kg	2.52	1.48 mg/kg	90.54	far surpasses the effect of acetylsalicylic acid	10 mg/kg	demonstrable	0.69		
CC(=O)Oc1ccccc1C(=O)O [Acetylsalicylic acid, reference compound]						1.00					494 mg/L (≈ 2740 µM)	134 mg/kg
CC(Cl)C(=O)Nc1ccc(C2=NNC(=O)C3CC23)cc1 (centres unmarked) [Example 20, 2-[p-(2-chloropropionylamino)-phenyl]-3,4-diaza-bicyclo[4.1.0]hept-2-en-5-one]	0.99 mg/L (≈ 3.39 µM)	499	0.278 mg/kg	1.21	3.74 mg/kg	35.83	far surpasses the effect of acetylsalicylic acid	10 mg/kg	demonstrable	0.69		
O=C(Nc1ccc(C2=NNC(=O)C3CC23)cc1)C(Cl)Cl (centres unmarked) [Example 23, 2-(p-dichloroacetylaminophenyl)-3,4-diaza-bicyclo[4.1.0]hept-2-en-5-one]	2.99 mg/L (≈ 9.58 µM)	165	1.5 mg/kg	0.23								
O=C(Nc1ccc(C2=NNC(=O)C3CC23)cc1)c1ccccc1 (centres unmarked) [Example 30, 2-(p-benzoylaminophenyl)-3,4-diaza-bicyclo[4.1.0]hept-2-en-5-one]	6.01 mg/L (≈ 19.7 µM)	82	> 10 mg/kg	< 0.03								
C=CC(=O)Nc1ccc(C2=NNC(=O)C3CC23)cc1 (centres unmarked) [Example 14, 2-(p-acryloylaminophenyl)-3,4-diaza-bicyclo[4.1.0]hept-2-en-5-one]	0.38 mg/L (≈ 1.49 µM)	1310	0.298 mg/kg	1.13								
CCC(C)C(=O)Nc1ccc(C2=NNC(=O)C3CC23)cc1 (centres unmarked) [Example 18, 2-[p-(2-methylbutyrylamino)-phenyl]-3,4-diaza-bicyclo[4.1.0]hept-2-en-5-one]	3.99 mg/L (≈ 14 µM)	124	0.9 mg/kg	0.37								
CC(C)(CBr)C(=O)Nc1ccc(C2=NNC(=O)C3CC23)cc1 (centres unmarked) [Example 22, 2-(p-bromopivaloylaminophenyl)-3,4-diaza-bicyclo[4.1.0]hept-2-en-5-one]	3.47 mg/L (≈ 9.53 µM)	142	2.96 mg/kg	0.11								
NNc1nnc(NN)c2ccccc12 [Dihydralazine, reference compound]			0.337 mg/kg	1.0				6.85 mg/kg		1.00		
O=C(CCl)Nc1ccc(C2=NNC(=O)C3CC23)cc1 (centres unmarked) [Example 12, 2-(p-chloroacetylaminophenyl)-3,4-diaza-bicyclo[4.1.0]hept-2-en-5-one]	0.95 mg/L (≈ 3.42 µM)	518	0.299 mg/kg	1.13								
O=C(Nc1ccc(C2=NNC(=O)C3CC23)cc1)C1CCC1 (centres unmarked) [Example 27, 2-(p-cyclobutylcarbonylaminophenyl)-3,4-diaza-bicyclo[4.1.0]hept-2-en-5-one]	1.42 mg/L (≈ 5.01 µM)	348	0.398 mg/kg	0.85								
CC1CC1C(=O)Nc1ccc(C2=NNC(=O)C3CC23)cc1 (centres unmarked) [Example 25, 2-[p-(2-methylcyclopropylcarbonylamino)-phenyl]-3,4-diaza-bicyclo[4.1.0]hept-2-en-5-one]	1.8 mg/L (≈ 6.35 µM)	274	0.649 mg/kg	0.52								
CC(Cl)(Cl)C(=O)Nc1ccc(C2=NNC(=O)C3CC23)cc1 (centres unmarked) [Example 24, 2-[p-(2,2-dichloropropionylamino)-phenyl]-3,4-diaza-bicyclo[4.1.0]hept-2-en-5-one]	3.2 mg/L (≈ 9.81 µM)	154	10 mg/kg	0.03								
CC(C)C(=O)Nc1ccc(C2=NNC(=O)C3CC23)cc1 (centres unmarked) [Example 16, 2-(p-isobutyrylaminophenyl)-3,4-diaza-bicyclo[4.1.0]hept-2-en-5-one]	4.88 mg/L (≈ 18 µM)	101	0.402 mg/kg	0.84								
O=C(CCCl)Nc1ccc(C2=NNC(=O)C3CC23)cc1 (centres unmarked) [Example 19, 2-[p-(3-chloropropionylamino)-phenyl]-3,4-diaza-bicyclo[4.1.0]hept-2-en-5-one]	3.52 mg/L (≈ 12.1 µM)	140	0.688 mg/kg	0.49								
C/C=C/C(=O)Nc1ccc(C2=NNC(=O)C3CC23)cc1 (centres unmarked) [Example 29, 2-(p-crotonoylaminophenyl)-3,4-diaza-bicyclo[4.1.0]-hept-2-en-5-one]	2.12 mg/L (≈ 7.87 µM)	233	1.71 mg/kg	0.20								
CC1(C(=O)Nc2ccc(C3=NNC(=O)C4CC34)cc2)CC1(Cl)Cl (centres unmarked) [Example 26, 2-[p-(2,2-dichloro-1-methylcyclopropylcarbonylamino)-phenyl]-3,4-diaza-bicyclo[4.1.0]hept-2-en-5-one]	1.91 mg/L (≈ 5.42 µM)	259	0.786 mg/kg	0.43								
O=C(CCCCl)Nc1ccc(C2=NNC(=O)C3CC23)cc1 (centres unmarked) [Example 21, 2-[p-(4-chlorobutyrylamino)-phenyl]-3,4-diaza-bicyclo[4.1.0]hept-2-en-5-one]	2.27 mg/L (≈ 7.42 µM)	218	6.81 mg/kg	0.05								
O=C(Nc1ccc(C2=NNC(=O)C3CC23)cc1)C1CCCCC1 (centres unmarked) [Example 28, 2-(p-cyclohexylcarbonylaminophenyl)-3,4-diaza-bicyclo[4.1.0]-hept-2-en-5-one]	5.09 mg/L (≈ 16.3 µM)	97	0.415 mg/kg	0.81								
O=CNc1ccc(C2=NNC(=O)C3CC23)cc1 (centres unmarked) [Example 10, 2-(p-formylaminophenyl)-3,4-diaza-bicyclo[4.1.0]hept-2-en-5-one]	6.81 mg/L (≈ 29.7 µM)	73	0.253 mg/kg	1.33								
